In US20260199484A1, “PROTAC DEGRADERS OF MLLT1 AND/OR MLLT3” (DARK BLUE THERAPEUTICS LTD, priority 2024, published 2026):

What was measured:
MV4-11 cells = test: MV4-11 cellular proliferative assay, Assay Format B (CTG 2.0, 168 h); type: cell-based; conditions: Homo sapiens, Assay format B, 168 h, read-out: IC50 (MV4-11 cellular proliferative assay)
Protocol: MV4-11 cells at a confluency of ~50-80% was used for cell growth assay. 600 cells/well in a 384-well opaque cell culture plate (6007680; Perkin Elmer) were seeded in 40 μL of complete medium (IMDM+10% FBS+1× Penicillin-Streptomycin). Cells were incubated overnight at 37° C., 5% CO2. 10 mM DMSO stocks were prepared, cells were treated with 10 concentrations of test compounds starting from 1 uM or 100 nM, 3-fold dilution in 10 uL (5× concentration) of complete medium. Final DMSO concentration was 0.3%. Culture plates were centrifuged at 40×g, 30s. Cells were incubated with compounds for 168 h (7 days). After 7 days, 20 uL CTG 2.0 reagent (G9242; Promega) was added per well and luminescence reading was taken in Envision Xcite 2105 multimode plate reader. Data was analyzed in GraphPad Prism 10.0 and data was shown as % viability with respect to DMSO control and dose-response curves were generated using four parameter logistic regression. Assay quality was determined by z-factor calculation using positive and negative controls.

MLLT1 = target: T1, MLLT1 (Homo sapiens, UniProt Q03111); test: MLLT1 degradation assay in MV4-11 cells (JESS, 24 h); type: cell-based; parameters: endogenous in cells; host or cells: MV4-11 (ATCC CRL-9591); conditions: vs DMSO control
T1 sequence (Q03111 1-559): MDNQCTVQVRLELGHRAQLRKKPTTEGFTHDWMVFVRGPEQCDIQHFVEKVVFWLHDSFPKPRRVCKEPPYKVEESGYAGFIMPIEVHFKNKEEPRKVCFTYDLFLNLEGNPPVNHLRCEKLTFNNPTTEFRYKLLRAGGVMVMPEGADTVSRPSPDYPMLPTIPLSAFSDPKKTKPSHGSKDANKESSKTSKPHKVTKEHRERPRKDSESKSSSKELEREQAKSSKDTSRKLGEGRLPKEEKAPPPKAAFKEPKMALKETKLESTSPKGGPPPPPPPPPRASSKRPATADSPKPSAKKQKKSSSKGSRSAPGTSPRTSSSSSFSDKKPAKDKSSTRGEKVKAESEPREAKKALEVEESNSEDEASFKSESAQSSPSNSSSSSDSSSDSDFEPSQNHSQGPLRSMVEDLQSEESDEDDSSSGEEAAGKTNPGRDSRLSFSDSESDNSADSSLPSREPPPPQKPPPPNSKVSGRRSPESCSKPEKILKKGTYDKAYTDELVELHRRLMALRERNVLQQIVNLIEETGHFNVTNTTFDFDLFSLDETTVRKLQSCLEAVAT
In short: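 MV4-11 cells treated at 1000, 100 and 10 nM (0.1% DMSO) for 24 h at 37° C; lysates (4 ug protein) run on JESS capillary immunoassay with MLLT1 and GAPDH antibodies. Peak areas give % degradation versus DMSO, binned A (≥75%) to D (<25%).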

Row | Compound | IC50 (MV4-11 cells) | MLLT1% Degradation @ 0.01 μM (MLLT1) | MLLT1% Degradation @ 0.1 μM (MLLT1) | MLLT1% Degradation @ 1 μM (MLLT1)
1 | Cc1c([C@H]2CCCN2C)[nH]c2cc(NC(=O)c3ccc4c(C)nn(CCCCCCCC#Cc5cccc6c5CN(C5CCC(=O)NC5=O)C6=O)c4c3)ncc12 (stereo partly drawn) [Example 57, 1-(9-(2-(2,6-dioxopiperidin-3-yl)-1-oxoisoindolin-4-yl)non-8-yn-1-yl)-3-methyl-N-(3-methyl-2-((R)-1-methylpyrrolidin-2-yl)-1H-pyrrolo[3,2-c]pyridin-6-yl)-1H-indazole-6-carboxamide] | < 0.1 µM | A (Category A: A≥75% degradation) | A (Category A: A≥75% degradation) | A (Category A: A≥75% degradation)
2 | Cc1nn(CCCCCCCC#Cc2cccc3c2CN(C2CCC(=O)NC2=O)C3=O)c2cc(C(=O)Nc3cc4[nH]c([C@H]5CCCN5C)cc4cn3)c(F)cc12 (stereo partly drawn) [Example 58, 1-(9-(2-(2,6-dioxopiperidin-3-yl)-1-oxoisoindolin-4-yl)non-8-yn-1-yl)-5-fluoro-3-methyl-N-(2-((R)-1-methylpyrrolidin-2-yl)-1H-pyrrolo[3,2-c]pyridin-6-yl)-1H-indazole-6-carboxamide] | < 0.1 µM | A (Category A: A≥75% degradation) | A (Category A: A≥75% degradation) | A (Category A: A≥75% degradation)
3 | CN1CCC[C@@H]1c1cc2cnc(NC(=O)c3ccc4c(C5CC5)nn(CCCCCCCC#Cc5cccc6c5CN(C5CCC(=O)NC5=O)C6=O)c4c3)cc2[nH]1 (stereo partly drawn) [Example 59, 3-cyclopropyl-1-(9-(2-(2,6-dioxopiperidin-3-yl)-1-oxoisoindolin-4-yl)non-8-yn-1-yl)-N-(2-((R)-1-methylpyrrolidin-2-yl)-1H-pyrrolo [3,2-c]pyridin-6-yl)-1H-indazole-6-carboxamide] | < 0.1 µM | A (Category A: A≥75% degradation) | A (Category A: A≥75% degradation) | A (Category A: A≥75% degradation)
4 | Cc1nn(CCCCCCCC#Cc2cccc(C3CCC(=O)NC3=O)c2F)c2cc(C(=O)Nc3cc4[nH]c([C@H]5CCCN5C)cc4cn3)ccc12 (stereo partly drawn) [Example 61, 1-(9-(3-(2,6-dioxopiperidin-3-yl)-2-fluorophenyl)non-8-yn-1-yl)-3-methyl-N-(2-((R)-1-methylpyrrolidin-2-yl)-1H-pyrrolo [3,2-c]pyridin-6-yl)-1H-indazole-6-carboxamide] | < 0.1 µM | C (Category C: 25%≤C<50% degradation) | A (Category A: A≥75% degradation) | A (Category A: A≥75% degradation)
5 | Cc1nn(CCCCCCCC#Cc2cccc3c2CN(C2CCC(=O)NC2=O)C3=O)c2cc(C(=O)Nc3cc4[nH]c([C@H]5CCCN5C)c(C#N)c4cn3)ccc12 (stereo partly drawn) [Example 66, N-(3-cyano-2-((R)-1-methylpyrrolidin-2-yl)-1H-pyrrolo[3,2-c]pyridin-6-yl)-1-(9-(2-(2,6-dioxopiperidin-3-yl)-1-oxoisoindolin-4-yl)non-8-yn-1-yl)-3-methyl-1H-indazole-6-carboxamide] | < 0.1 µM | A (Category A: A≥75% degradation) | A (Category A: A≥75% degradation) | A (Category A: A≥75% degradation)
6 | Cc1nn(CCCCCCCC#Cc2ccc(F)c3c2CN(C2CCC(=O)NC2=O)C3=O)c2cc(C(=O)Nc3cc4[nH]c([C@H]5CCCN5C)c(Cl)c4cn3)ccc12 (stereo partly drawn) [Example 67, N-(3-chloro-2-((R)-1-methylpyrrolidin-2-yl)-1H-pyrrolo[3,2-c]pyridin-6-yl)-1-(9-(2-(2,6-dioxopiperidin-3-yl)-7-fluoro-1-oxoisoindolin-4-yl)non-8-yn-1-yl)-3-methyl-1H-indazole-6-carboxamide] | < 0.1 µM | A (Category A: A≥75% degradation) | A (Category A: A≥75% degradation) | A (Category A: A≥75% degradation)
7 | Cc1nn(C2CCN(CC#Cc3cccc4c3CN(C3CCC(=O)NC3=O)C4=O)CC2)c2cc(C(=O)Nc3cc4[nH]c([C@H]5CCCN5C)cc4cn3)ccc12 (stereo partly drawn) [Example 68, 1-(1-(3-(2-(2,6-dioxopiperidin-3-yl)-1-oxoisoindolin-4-yl)prop-2-yn-1-yl)piperidin-4-yl)-3-methyl-N-(2-((R)-1-methylpyrrolidin-2-yl)-1H-pyrrolo[3,2-c]pyridin-6-yl)-1H-indazole-6-carboxamide] | < 0.1 µM | A (Category A: A≥75% degradation) | A (Category A: A≥75% degradation) | B (Category B: 50%≤B<75% degradation)
8 | Cc1nn(C2CCN(CC3CCN(c4cc5c(cc4F)C(=O)N(C4CCC(=O)NC4=O)C5=O)CC3)CC2)c2cc(C(=O)Nc3cc4[nH]c([C@H]5CCCN5C)cc4cn3)ccc12 (stereo partly drawn) [Example 69, 1-(1-((1-(2-(2,6-dioxopiperidin-3-yl)-6-fluoro-1,3-dioxoisoindolin-5-yl)piperidin-4-yl)methyl)piperidin-4-yl)-3-methyl-N-(2-((R)-1-methylpyrrolidin-2-yl)-1H-pyrrolo[3,2-c]pyridin-6-yl)-1H-indazole-6-carboxamide] | < 0.1 µM | A (Category A: A≥75% degradation) | A (Category A: A≥75% degradation) | A (Category A: A≥75% degradation)
9 | Cc1nn(C2CCN(CC3CCN(c4ccc5c(c4)C(=O)N(C4CCC(=O)NC4=O)C5=O)CC3)CC2)c2cc(C(=O)Nc3cc4[nH]c([C@H]5CCCN5C)cc4cn3)ccc12 (stereo partly drawn) [Example 70, 1-(1-((1-(2-(2,6-dioxopiperidin-3-yl)-1,3-dioxoisoindolin-5-yl)piperidin-4-yl)methyl)piperidin-4-yl)-3-methyl-N-(2-((R)-1-methylpyrrolidin-2-yl)-1H-pyrrolo[3,2-c]pyridin-6-yl)-1H-indazole-6-carboxamide] | < 0.1 µM | A (Category A: A≥75% degradation) | A (Category A: A≥75% degradation) | A (Category A: A≥75% degradation)
10 | Cc1nn(C2CCN(CC3CCN(c4cccc5c4C(=O)N(C4CCC(=O)NC4=O)C5=O)CC3)CC2)c2cc(C(=O)Nc3cc4[nH]c([C@H]5CCCN5C)cc4cn3)ccc12 (stereo partly drawn) [Example 71, 1-(1-((1-(2-(2,6-dioxopiperidin-3-yl)-1,3-dioxoisoindolin-4-yl)piperidin-4-yl)methyl)piperidin-4-yl)-3-methyl-N-(2-((R)-1-methylpyrrolidin-2-yl)-1H-pyrrolo[3,2-c]pyridin-6-yl)-1H-indazole-6-carboxamide] | < 0.1 µM | B (Category B: 50%≤B<75% degradation) | A (Category A: A≥75% degradation) | A (Category A: A≥75% degradation)
